Source: ChEMBL document CHEMBL1201862, “PubChem BioAssay data set” (2004)
The source made the active and inactive calls.

Columns and labels:
[1] = A cytotoxicity screen of small molecule inhibitors of the PhoP region in Salmonella typhi identified in the primary screen. [Related pubchem assays: 1850, 1864, 1985 ]; assay type: functional
[2] = target: Induced myeloid leukemia cell differentiation protein Mcl-1 (Homo sapiens, UniProt Q07820); assay type: functional
Estrogen receptor = target: T1, Estrogen receptor (Homo sapiens, UniProt P03372);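 further: potency for inhibiting coactivator peptide recruitment to the receptor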
T1 sequence (P03372 whole entry): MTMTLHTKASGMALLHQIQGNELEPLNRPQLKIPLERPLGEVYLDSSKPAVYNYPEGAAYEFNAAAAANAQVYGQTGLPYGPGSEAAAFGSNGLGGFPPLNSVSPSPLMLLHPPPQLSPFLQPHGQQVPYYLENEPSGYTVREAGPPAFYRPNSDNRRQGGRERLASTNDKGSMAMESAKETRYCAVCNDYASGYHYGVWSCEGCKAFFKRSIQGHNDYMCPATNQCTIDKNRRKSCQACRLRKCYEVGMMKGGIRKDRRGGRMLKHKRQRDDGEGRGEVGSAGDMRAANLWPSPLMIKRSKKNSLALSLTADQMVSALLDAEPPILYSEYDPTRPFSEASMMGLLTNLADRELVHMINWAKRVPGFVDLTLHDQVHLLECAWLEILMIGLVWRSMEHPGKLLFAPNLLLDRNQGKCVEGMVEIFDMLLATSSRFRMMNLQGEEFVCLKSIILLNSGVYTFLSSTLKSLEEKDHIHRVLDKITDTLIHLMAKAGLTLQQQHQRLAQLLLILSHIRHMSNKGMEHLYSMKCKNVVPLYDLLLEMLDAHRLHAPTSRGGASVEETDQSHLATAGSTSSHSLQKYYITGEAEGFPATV

Estrogen receptor beta [3] = target: T2, Estrogen receptor beta (Homo sapiens, UniProt Q92731);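 further: recombinant ER-beta bound to coactivator SRC1 peptide in presence of estradiol agonist; inhibitors block coactivator peptide binding and lower the FRET signal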
[4] = growth suppression of PTEN-null colon cells, dose response, cell-based, HCT116 PTEN knockout (AID 1047); assay type: functional;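 further: HCT116 colon tumor cells with PTEN knocked out; cells exposed to compound for 60 hours before readout; potency for loss of cell viability measured by luminescence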
Estrogen receptor beta [5] = target: T2, Estrogen receptor beta; assay: ERβ–SRC-3 coactivator interaction inhibitors, confirmation, orthogonal assay, biochemical, ELISA, streptavidin-HRP readout (AID 1060)
[6] = growth suppression of beta-catenin-knockout colon cells, dose response, cell-based, HCT116, human colon tumor (AID 1045); assay type: functional;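 further: HCT116 colon tumor cells with beta catenin knocked out; cells exposed to compound for 60 hours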
Aminopeptidase N = target: T3, Aminopeptidase N (Plasmodium falciparum FcB1/Columbia, UniProt O96935); assay: P. falciparum M1AAP inhibitors, biochemical, fluorogenic H-Leu-NHMec substrate, 1536-well (AID 1445); parameters: species or system Plasmodium falciparum 3D7, 3D7
T3 sequence (O96935 whole entry): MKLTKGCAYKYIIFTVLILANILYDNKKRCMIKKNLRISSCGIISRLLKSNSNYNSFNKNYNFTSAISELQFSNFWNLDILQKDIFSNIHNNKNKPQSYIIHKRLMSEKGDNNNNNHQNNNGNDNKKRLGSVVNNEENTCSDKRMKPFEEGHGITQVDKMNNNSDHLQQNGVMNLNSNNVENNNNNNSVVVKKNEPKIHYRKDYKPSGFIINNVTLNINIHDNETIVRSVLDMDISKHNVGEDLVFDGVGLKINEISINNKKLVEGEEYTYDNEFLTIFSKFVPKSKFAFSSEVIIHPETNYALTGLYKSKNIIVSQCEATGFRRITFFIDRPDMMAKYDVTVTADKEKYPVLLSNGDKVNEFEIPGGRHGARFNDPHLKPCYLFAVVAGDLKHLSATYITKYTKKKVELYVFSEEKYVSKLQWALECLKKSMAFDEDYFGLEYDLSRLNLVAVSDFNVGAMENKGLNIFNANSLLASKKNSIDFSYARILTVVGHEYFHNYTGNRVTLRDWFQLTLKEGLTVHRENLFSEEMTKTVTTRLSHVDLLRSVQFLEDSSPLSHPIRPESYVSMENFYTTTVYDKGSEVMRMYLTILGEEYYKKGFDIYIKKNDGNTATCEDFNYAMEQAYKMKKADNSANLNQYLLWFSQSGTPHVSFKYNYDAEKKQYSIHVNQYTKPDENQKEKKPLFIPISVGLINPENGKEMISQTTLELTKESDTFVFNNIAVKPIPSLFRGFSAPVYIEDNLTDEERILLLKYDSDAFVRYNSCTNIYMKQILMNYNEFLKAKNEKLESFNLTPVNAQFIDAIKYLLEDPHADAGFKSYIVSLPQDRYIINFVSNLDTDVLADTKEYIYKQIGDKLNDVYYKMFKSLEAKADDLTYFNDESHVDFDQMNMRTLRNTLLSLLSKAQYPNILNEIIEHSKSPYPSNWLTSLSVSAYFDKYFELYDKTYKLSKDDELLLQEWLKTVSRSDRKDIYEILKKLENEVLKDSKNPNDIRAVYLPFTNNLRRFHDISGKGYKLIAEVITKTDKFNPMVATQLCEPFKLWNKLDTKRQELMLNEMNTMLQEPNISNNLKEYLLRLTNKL

Leucine aminopeptidase = target: T4, Leucine aminopeptidase (Plasmodium falciparum 3D7, UniProt Q8IL11); assay: P. falciparum M17LAP inhibitors, primary screen, biochemical, fluorogenic H-Leu-NHMec substrate, 1536-well (AID 1619); assay type: functional
T4 sequence (Q8IL11 whole entry): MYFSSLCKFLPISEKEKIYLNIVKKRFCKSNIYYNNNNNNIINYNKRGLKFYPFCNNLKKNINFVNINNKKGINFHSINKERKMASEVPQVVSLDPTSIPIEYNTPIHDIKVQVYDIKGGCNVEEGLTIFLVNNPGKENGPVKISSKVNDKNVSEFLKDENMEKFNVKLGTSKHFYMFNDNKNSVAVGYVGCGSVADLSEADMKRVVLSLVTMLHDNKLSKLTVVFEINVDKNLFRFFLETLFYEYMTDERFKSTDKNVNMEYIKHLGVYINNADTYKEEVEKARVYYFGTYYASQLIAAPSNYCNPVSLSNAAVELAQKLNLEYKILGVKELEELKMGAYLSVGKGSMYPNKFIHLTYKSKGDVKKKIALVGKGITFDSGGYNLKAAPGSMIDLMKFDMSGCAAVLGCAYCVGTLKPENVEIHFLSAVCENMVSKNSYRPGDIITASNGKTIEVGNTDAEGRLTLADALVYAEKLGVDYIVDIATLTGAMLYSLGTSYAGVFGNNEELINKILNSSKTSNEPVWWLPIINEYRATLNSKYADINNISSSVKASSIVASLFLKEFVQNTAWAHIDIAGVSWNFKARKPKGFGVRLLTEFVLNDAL

[7] = target: T5, Tyrosine-protein phosphatase non-receptor type 7 (Homo sapiens, UniProt P35236); assay: inhibitors of human HePTP phosphatase, […], biochemical, absorbance, leukemia target (AID 521); assay type: functional
T5 sequence (P35236 whole entry): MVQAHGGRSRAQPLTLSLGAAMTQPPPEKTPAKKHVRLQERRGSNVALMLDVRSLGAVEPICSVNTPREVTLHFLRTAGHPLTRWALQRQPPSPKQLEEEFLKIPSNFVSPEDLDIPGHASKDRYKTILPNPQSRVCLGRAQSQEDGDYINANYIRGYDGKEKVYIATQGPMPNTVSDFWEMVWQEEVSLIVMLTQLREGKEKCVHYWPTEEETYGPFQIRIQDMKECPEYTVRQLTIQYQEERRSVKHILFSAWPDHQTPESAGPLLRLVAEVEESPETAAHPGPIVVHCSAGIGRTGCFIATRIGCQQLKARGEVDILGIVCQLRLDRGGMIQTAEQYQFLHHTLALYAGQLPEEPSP

[8] = target: T6, Mannose-6-phosphate isomerase (Homo sapiens, UniProt P34949); assay: human PMI inhibitors, high substrate, primary screen, biochemical, fluorescence intensity, high mannose 6-phosphate (AID 1220)
T6 sequence (P34949 whole entry): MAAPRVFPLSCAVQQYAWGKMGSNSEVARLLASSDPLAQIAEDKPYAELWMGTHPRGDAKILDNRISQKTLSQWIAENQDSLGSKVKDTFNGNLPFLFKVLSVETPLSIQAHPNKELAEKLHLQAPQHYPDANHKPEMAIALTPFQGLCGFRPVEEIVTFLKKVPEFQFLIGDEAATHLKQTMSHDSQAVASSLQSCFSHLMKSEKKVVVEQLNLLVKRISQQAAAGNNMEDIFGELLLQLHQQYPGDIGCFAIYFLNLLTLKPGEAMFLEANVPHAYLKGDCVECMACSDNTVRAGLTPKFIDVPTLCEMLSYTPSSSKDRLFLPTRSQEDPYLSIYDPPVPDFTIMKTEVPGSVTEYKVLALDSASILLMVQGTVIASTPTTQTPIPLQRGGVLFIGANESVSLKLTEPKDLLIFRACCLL

[9] = target: Eukaryotic translation initiation factor 4E (Mus musculus, UniProt P63073); assay: eIF4E–eIF4G protein interaction inhibitors, dose response, biochemical, TR-FRET (AID 855); assay type: functional;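 further: potency for disrupting eIF4E binding to eIF4GI seen as loss of FRET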
cells [10] = assay type: functional, cell-based
[11] = target: T7, Trace amine-associated receptor 1 (Homo sapiens, UniProt Q96RJ0); assay: Fluorescence-based cell-based high throughput dose response assay to identify agonists of the human trace amine associated receptor 1 (TAAR1).; assay type: functional
T7 sequence (Q96RJ0 whole entry): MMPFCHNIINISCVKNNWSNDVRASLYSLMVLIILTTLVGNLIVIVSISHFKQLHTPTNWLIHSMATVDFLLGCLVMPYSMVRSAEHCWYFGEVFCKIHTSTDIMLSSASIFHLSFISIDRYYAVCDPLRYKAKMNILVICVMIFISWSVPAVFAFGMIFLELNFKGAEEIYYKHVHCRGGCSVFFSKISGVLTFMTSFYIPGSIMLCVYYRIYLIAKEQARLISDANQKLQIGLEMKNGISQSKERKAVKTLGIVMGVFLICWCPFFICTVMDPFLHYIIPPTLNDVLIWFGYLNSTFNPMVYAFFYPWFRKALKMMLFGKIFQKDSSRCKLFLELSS

[12] = target: T7, Trace amine-associated receptor 1; assay: Counterscreen for agonists of the human trace amine associated receptor 1 (hTAAR1): Fluorescence-based cell-based high throughput dose response assay to identify hTAAR1 agonist that also desensitize TAAR1 receptor response.; assay type: functional
cells [13] = assay type: functional, cell-based; remark: listed apart in the source
[14] = target: T8, Short transient receptor potential channel 4 (Mus musculus, UniProt Q9QUQ5); assay: mouse TRPC4 channel inhibitors, dose response, cell-based, HEK293 TRPC4/mu-opioid, Fluo-4 calcium (AID 434942); assay type: functional;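 further: potency of inhibitors blocking the TRPC4 calcium response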
T8 sequence (Q9QUQ5 whole entry): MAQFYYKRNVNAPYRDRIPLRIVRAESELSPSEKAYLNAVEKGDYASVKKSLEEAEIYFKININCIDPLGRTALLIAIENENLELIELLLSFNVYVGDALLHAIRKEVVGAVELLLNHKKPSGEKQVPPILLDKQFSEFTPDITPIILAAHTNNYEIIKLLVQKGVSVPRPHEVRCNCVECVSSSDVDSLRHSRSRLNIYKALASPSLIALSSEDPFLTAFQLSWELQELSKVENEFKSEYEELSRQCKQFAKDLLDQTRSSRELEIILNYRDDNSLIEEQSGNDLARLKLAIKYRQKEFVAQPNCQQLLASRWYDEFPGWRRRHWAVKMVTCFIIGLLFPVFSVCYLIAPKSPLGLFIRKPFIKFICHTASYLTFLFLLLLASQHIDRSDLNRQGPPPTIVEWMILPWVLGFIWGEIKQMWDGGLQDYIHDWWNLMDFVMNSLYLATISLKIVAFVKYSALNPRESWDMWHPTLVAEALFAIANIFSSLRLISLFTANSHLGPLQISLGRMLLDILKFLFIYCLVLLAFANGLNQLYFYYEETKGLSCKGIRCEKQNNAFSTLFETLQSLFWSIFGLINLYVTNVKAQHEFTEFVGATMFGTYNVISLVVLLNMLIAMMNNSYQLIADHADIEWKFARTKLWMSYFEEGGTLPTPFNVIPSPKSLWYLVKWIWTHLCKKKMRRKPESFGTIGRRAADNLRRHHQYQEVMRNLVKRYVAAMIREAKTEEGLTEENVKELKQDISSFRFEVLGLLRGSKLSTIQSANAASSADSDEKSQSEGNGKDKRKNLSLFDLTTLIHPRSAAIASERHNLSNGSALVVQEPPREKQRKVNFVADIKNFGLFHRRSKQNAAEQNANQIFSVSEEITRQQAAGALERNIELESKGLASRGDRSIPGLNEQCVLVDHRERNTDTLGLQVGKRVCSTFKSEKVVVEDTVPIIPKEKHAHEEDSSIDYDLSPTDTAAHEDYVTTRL

T2 sequence (Q92731 whole entry): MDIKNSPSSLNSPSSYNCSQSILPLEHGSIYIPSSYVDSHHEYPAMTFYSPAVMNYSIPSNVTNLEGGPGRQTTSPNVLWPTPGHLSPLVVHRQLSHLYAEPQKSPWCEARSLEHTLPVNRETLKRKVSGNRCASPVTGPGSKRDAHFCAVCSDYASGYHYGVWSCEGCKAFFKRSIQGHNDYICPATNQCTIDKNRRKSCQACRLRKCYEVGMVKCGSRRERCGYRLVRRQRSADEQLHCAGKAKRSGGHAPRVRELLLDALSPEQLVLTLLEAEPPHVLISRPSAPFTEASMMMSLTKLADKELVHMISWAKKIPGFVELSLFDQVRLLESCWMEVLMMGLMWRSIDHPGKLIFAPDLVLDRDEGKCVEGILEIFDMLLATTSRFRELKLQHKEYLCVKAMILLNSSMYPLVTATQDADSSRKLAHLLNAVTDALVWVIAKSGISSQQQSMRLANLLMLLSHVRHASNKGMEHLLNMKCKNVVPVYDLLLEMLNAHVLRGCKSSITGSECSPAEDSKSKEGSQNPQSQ
Chain of Induced myeloid leukemia cell differentiation protein Mcl-1 (Q07820 whole entry): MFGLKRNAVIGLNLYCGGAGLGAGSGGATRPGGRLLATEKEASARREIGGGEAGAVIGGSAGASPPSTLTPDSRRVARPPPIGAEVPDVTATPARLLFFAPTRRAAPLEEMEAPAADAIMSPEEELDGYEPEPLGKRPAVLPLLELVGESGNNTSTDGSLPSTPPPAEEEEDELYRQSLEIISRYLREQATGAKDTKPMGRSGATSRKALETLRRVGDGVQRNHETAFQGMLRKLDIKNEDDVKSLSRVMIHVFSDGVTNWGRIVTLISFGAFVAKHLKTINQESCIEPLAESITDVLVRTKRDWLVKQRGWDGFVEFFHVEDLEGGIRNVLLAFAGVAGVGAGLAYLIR
Chain of Eukaryotic translation initiation factor 4E (P63073 whole entry): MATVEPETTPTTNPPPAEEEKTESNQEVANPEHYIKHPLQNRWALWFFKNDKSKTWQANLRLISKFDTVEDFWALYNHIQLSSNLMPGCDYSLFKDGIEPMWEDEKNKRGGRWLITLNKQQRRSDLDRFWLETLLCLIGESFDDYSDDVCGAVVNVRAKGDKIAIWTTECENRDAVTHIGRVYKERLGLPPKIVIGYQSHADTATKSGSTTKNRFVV

O=C(c1ccco1)N1CCCN(Cc2nc(-c3ccc4c(c3)OCO4)no2)CC1
EC50 [1]: > 50 µM (active)

CC(C)OC(=O)c1cccc(C(=O)Oc2ccc(Br)cc2)n1
EC50 [1]: > 50 µM (active)

CCc1cc(C(=O)N=Nc2c(O)[nH]c3ccc([N+](=O)[O-])cc23)c2ccccc2n1
IC50 [2]: 6.88 µM (active)

CC(C)CCNC(=O)c1cc2c(s1)-c1ccccc1S(=O)(=O)C2
EC50 [1]: > 50 µM (active)

CCOc1cccc2cc(-c3cn4cc(C)ccc4n3)c(=O)oc12
IC50 (Estrogen receptor): 3.82 µM (active)
IC50 (Estrogen receptor beta [3]): > 50 µM (not active)
EC50 [4]: 1.33 µM (active)
IC50 (Estrogen receptor beta [5]): > 50 µM (not active)
EC50 [6]: 2.46 µM (active)

O=C(Cc1ccc(S(=O)(=O)N2CCOCC2)s1)NCCC(c1ccccc1)c1ccccc1
IC50 (Aminopeptidase N): 2.76 µM (active)

Cn1nnnc1SCC1=C(C(=O)O)N2C(=O)[C@@H](NC(=O)[C@H](O)c3ccccc3)[C@H]2SC1 [CEFAMANDOLE SODIUM]
IC50 (Leucine aminopeptidase): 12.1 µM (active)
IC50 [7]: 0.1 µM (active)

OCCN1CCN(C(c2cccs2)c2ccc3cccnc3c2O)CC1 (stereo not drawn)
IC50 (Estrogen receptor beta [5]): 2.82 µM (active)
IC50 [8]: > 50 µM (not active)
IC50 [9]: > 64 µM (inactive)

CCN1CCCC1Cn1cnc2c3cc(Cl)ccc3nc-2c1O (stereo not drawn)
EC50 [1]: > 50 µM (active)

CN1CCN(c2ccc(NC(=O)c3cccc(OCc4ccccc4)c3)cc2)CC1
IC50 (Estrogen receptor beta [5]): 0.0793 µM (not active)
IC50 (cells [10]): > 29.9 µM (inactive)
EC50 [11]: 9.36 µM (active)
IC50 [12]: 9.06 µM (active)
EC50 (cells [13]): > 29.9 µM (inactive)

Cn1c(=O)c2c(nc(SCc3cccnc3)n2Cc2ccc(F)cc2)n(C)c1=O
IC50 [7]: > 100 µM (not active)
EC50 [14]: 944 nM (active)
